These results are taken from patent publication US8637310B2, “Use of a rock inhibitor to sustain primary human keratinocytes in a proliferative state” (The United States of America, as represented by the …, priority 2008, dated 2014).

In one assay the test system is HPV31. As to the kind of experiment: HPV DNA replication assay (Southern blot) in transfected primary keratinocytes, HPV31. Type of assay: cell-based, human papillomavirus. Conditions: 10 μM Y-27632; two and five days post-electroporation; FIG. 5. As for the experimental part:
Cloned viral genomes were cleaved with restriction enzymes to separate viral and vector sequences. The genomes were religated at a concentration of 5 μg/ml to favor intramolecular circularization. Prior to electroporation, J2 feeder cells were removed from the keratinocytes by versene treatment and the HFKs were collected by trypsinization. HFKs (1×10^6) were electroporated with 2 μg of re-circularized viral genomic DNA using the Amaxa Nucleofector II electroporator and the Human Keratinocyte Nucleofector Kit. The Amaxa program optimized for cell survival was used according to the manufacturer's specifications. Cells were removed from the cuvettes immediately following electroporation, and seeded onto 10 cm plates containing irradiated feeder cells and F-medium, in the presence or absence of 10 μM Y-27632, as indicated. At various times post-transfection, low molecular weight DNA was isolated by a modified Hirt extraction procedure (Ustav et al., EMBO J. 10:449-457, 1991). For Southern blot analysis, the isolated DNA was linearized with EcoRI or BamHI, depending on cloning site for each viral genome, and DpnI, to digest any unreplicated input DNA. DNA fragments were separated by agarose gel electrophoresis followed by Southern blot hybridization. […]

In a further assay the test system is p16^INK4a. As to the kind of experiment: Immunodetection of p16INK4a. It counts as cell-based, human. As for the experimental part: Proteins were extracted in 2% sodium dodecyl sulfate (SDS), 50 mM Tris-HCl (pH 6.8), 10% glycerol supplemented with inhibitors Complete and PhosphoSTOP (Roche, Indianapolis, Ind.). Protein samples were resolved on NuPage gels, electrotransferred to Immobilon-P membrane (Millipore, Billerica, Mass.), and probed with the relevant antibodies before detection by chemiluminescence. Monoclonal antibody against p53 (DO-1) was obtained from Santa Cruz Biotechnology (Santa Cruz, Calif.). Monoclonal antibody against α-tubulin (B-5-1-2) was obtained from Sigma-Aldrich. Polyclonal antibodies against Myc (N-262), p21 (C-19), and p16 (C-20) were obtained from Santa Cruz Biotechnology.

In assay [1] the test system is human foreskin keratinocytes (HFK). As to the kind of experiment: Long-term culture / immortalization of primary human foreskin keratinocytes on irradiated J2 feeder cells. Type of assay: cell-based. As for the experimental part: Primary human foreskin keratinocytes (HFKs) were isolated and pooled from neonatal human foreskins from seven donors and grown in F medium (3: 1(v/v) F-12 Nutrient Mixture: DMEM, 5% FBS, 0.4 μg/ml hydrocortisone, 5 μg/ml insulin, 8.4 ng/ml cholera toxin, 10 ng/ml EGF, and 24 μg/ml adenine) (Jeon et al., Proc. Natl. Acad. Sci. USA 92:1654-1658, 1995) in the presence of irradiated J2 feeder cells. HFKs were divided into 10 cm plates, containing F-media with or without the addition of 10 μM Y-27632 (Alexis Biochemicals, San Diego, Calif.).
Human foreskin keratinocytes (HFKs) were isolated from pools of at least seven neonatal foreskins and grown in 154 medium supplemented with Human
Keratinocyte Growth Supplement and Gentamicin/Amphotericin (Invitrogen, Carlsbad, Calif.) or in F medium [3:1 (v/v) F-12 (Ham)-DMEM, 5% FBS, 0.4 μg/ml hydrocortisone, 5 μg/ml insulin, 8.4 ng/ml cholera toxin, 10 ng/ml EGF, 24 μg/ml adenine, 100 U penicillin, 100 μg/ml streptomycin (Invitrogen, cat no. 15140-148)] in the presence of irradiated 3T3 J2 feeder cells (Jeon et al., J. Virol. 69: 2989-2997, 1995).
The HPV18 cell line was established by introducing the HPV18 genome into primary HFKs using the Amaxa human keratinocyte nucleofection system. Primary human cervical keratinocytes (HCKs), human vaginal keratinocytes (HVKs), the HPV18 cell lines and the HPV31 positive cell line (CIN-612 9E) were grown in the presence or absence of 10 μM Y-27632 (Alexis Biochemicals), as indicated. Cells were subcultured by removing the fibroblast feeder cells with versene and keratinocytes were collected by trypsinization. At each pass, 2×10^5 cells were plated on a 10 cm plate of J2 feeder cells. Population doubling was calculated as: PD=3.32(log(# cells harvested/# cells seeded)). Immunodetection

[2] abbreviates: 10 μM Y-27632, Example 2, FIG. 14.

Regarding `CC(N)[C@H]1CC[C@H](C(=O)Nc2ccncc2)CC1` (single isomer, unassigned; (+)) [Y-27632, (+)-trans-N-(4-Pyridyl)-4-(1-aminoethyl)-cyclohexanecarboxamide], in the assay with HPV31, the “efficiency of HPV replication” value is recorded as “greatly increased the efficiency of HPV replication up to five days”. Further, in the assay with p16^INK4a (HPV immortalized cells), the “p16^INK4a levels” value was “no effect”. Moreover, in the assay with p16^INK4a (after long-term culture with Y-27632, FIG. 12A), the “p16^INK4a mRNA and protein expression” value is on record as “still observed, albeit at a low level”. In assay [1] (10 μM Y-27632, Example 1), the “continued division / growth rate beyond senescence of untreated cells (about 15 passages)” value is reported as “continued to divide without any decrease in growth rate”, the “number of times treated cells were passed” value was “at least 82 times”, the “proliferation rate versus untreated cells” value is recorded as “proliferated at a rate that exceeded the untreated cells almost immediately” and the “time in continuous culture” value is recorded as “over 10 months”. In assay [1] (setting [2]), the passages in culture result is given as “up to 150 passages” and the period of culture is listed as 500 days. Moreover, in assay [1] (10 μM Y-27632, FIG. 9), the bypass of senescence entry was “efficiently bypassed senescence with no observed decline in growth rate” and the cellular proliferation entry is “dramatic increase in cellular proliferation”. Moreover, the “population doubling (PD) to which cells were cultured, considered to be immortal” value in assay [1] (+Y-27632 (10 μM), HFK strain b) was “PD199”. In assay [1] (withdrawn at passage 48, after 196 days in culture), the “growth after withdrawal of Y-27632” value is “continued to grow unchecked with only a gradual slowing in the rate of population doubling”.
